Source: US20080096967A1, “Formulations for Injection of Catecholic Butanes, Including Ndga Compounds, Into Animals” (priority 2005, published 2008)

Assay: Solubility of M4N in formulations containing modified celluloses (visual inspection); as to Dissolution After Rotation: key: N represents 'No'; Y represents 'Yes.'
Format: physicochemical
Experimental: A 10 mL solution of 50% HP-β-CD (w/v) and 0.5% hydroxypropyl methylcellulose (“HPMC”) (w/v) for use as a solubilizing agent and/or excipient was made as follows: 5.9 mL of water suitable for injection into animals (“WFI”) were placed in a glass beaker containing a stir bar. The beaker was placed on a magnetic plate, and the stir bar was set to stir at medium speed. Five grams of HP-β-CD were added slowly to the stirring WFI, using a spatula to direct the HP-β-CD to the center of the beaker. The HP-β-CD solution was stirred for about 24 hr or until the HP-β-CD was dissolved completely upon visual inspection. The resulting solution measured about 9.4 mL. About 0.6 mL of WFI was added to this resulting solution to reach 10 mL, to produce a solution of 50% HP-β-CD (w/v). Fifty milligrams of HPMC were added to the 50% HP-β-CD solution and stirred for about 1 hr or until the HPMC was dissolved upon visual inspection. The final solution was stirred for about 1 hr and was then stored at room temperature, protected from light. This method of making modified cyclodextrins with modified celluloses may be scaled up or down to obtain the desired volume or concentration of HP-β-CD/HPMC solution. Other modified cyclodextrin/modified cellulose solutions may be similarly made, for example, by substituting HP-β-CD with other modified cyclodextrins, or HPMC with other modified celluloses, in the process described above.
A 10 mL solution of M4N at a concentration of about 10 mg/mL in 50% HP-β-CD/0.5% HPMC was made as follows. About 10 mL of the 50% HP-β-CD/0.5% HPMC solution were added to a glass beaker containing a stir bar. The beaker was placed on a magnetic plate and the stir bar was set to stir at medium speed. About 100 mg of M4N were slowly added to the 50% HP-β-CD/0.5% HPMC in the center of the beaker with the aid of a spatula. The M4N/50% HP-β-CD/0.5% HPMC mixture was stirred for 24 hr or until all M4N was uniformly suspended without any clumps being present. The M4N/50% HP-β-CD/0.5% HPMC mixture was heated at about 90° C. for about 30 min. (or longer if a larger volume of solution was desired, for example, 1 hr at 90° C. for 500 mL of the M4N/50% HP-β-CD/0.5% HPMC mixture), or longer as needed to ensure complete dissolution of M4N. […] The final M4N/50% HP-β-CD/0.5% HPMC solution was stored at room temperature and was kept protected from light.
A 10 mL solution of 5% ethylcellulose (“EC”) in ethanol (w/v) for use as a solubilizing agent and/or excipient was made as follows: 10 mL of 100% ethyl alcohol (“EtOH”) were placed in a glass beaker containing a stir bar, covered by a round Teflon® cover. The beaker was placed on a magnetic plate, and the stir bar was set to stir at medium speed. Five hundred (500) milligrams of EC was added slowly to the stirring ethanol, using a spatula to direct the EC to the center of the beaker so as to prevent EC powder from sticking to the beaker wall. The EC solution was stirred for about 2 hr or until the EC was dissolved completely upon visual inspection. The final solution was stored at room temperature, and was protected from light.
A 10 mL solution of M4N at a concentration of about 20 mg/mL in 5% EC (w/v) (the “EC formulation”) was made as follows. About 10 mL of 5% EC formulation, made as described above, were added to a glass beaker containing a stir bar. The beaker was placed on a magnetic plate and the stir bar was set to stir at medium speed, and covered with a round Teflon® cover. About 200 mg of M4N were slowly added to the 5% EC formulation in the center of the beaker with the aid of a spatula to prevent M4N from sticking to the beaker wall. The M4N/EC mixture was stirred for 2 hr or until all M4N had dissolved or was uniformly suspended without any clumps being present. The M4N/EC mixture was heated at about 60° C. for about 30 min. […]

[1] = 50% HP-β-CD, 0.5% HPMC, M4N 1 mg/mL
[2] = 50% HP-β-CD, 0.5% HPMC, M4N 10 mg/mL
[3] = EC 5% (w/v) in EtOH, M4N 1 mg/mL
[4] = EC 5% (w/v) in EtOH, M4N 10 mg/mL
[5] = EC 5% (w/v) in EtOH, M4N 20 mg/mL

COc1ccc(C[C@@H](C)[C@@H](C)Cc2ccc(OC)c(OC)c2)cc1OC [Formulation M4N, meso-1,4-bis(3,4-dimethoxyphenyl)-2,3-dimethylbutane]
Y: Dissolution After Rotation [3]
N at 90 °C: Dissolution After Heating (2.3% HPMC, M4N 1 mg/mL, 90° C.) | Dissolution After Heating (2.3% HPMC, M4N 10 mg/mL, 90° C.) | Dissolution After Heating (2.3% HPMC, M4N 50 mg/mL, 90° C.) | Dissolution After Heating (2.3% HPMC, M4N 100 mg/mL, 90° C.) | Dissolution After Heating (50% HP-β-CD, 0.5% HPMC, M4N 50 mg/mL, 90° C.) | Dissolution After Heating (CMC (High Viscosity) 1% (w/v), M4N 1 mg/mL, 90° C.) | Dissolution After Heating (CMC (High Viscosity) 1% (w/v), M4N 10 mg/mL, 90° C.) | Dissolution After Heating (CMC (Low Viscosity) 4%, M4N 1 mg/mL, 90° C.) | Dissolution After Heating (CMC (Low Viscosity) 4%, M4N 10 mg/mL, 90° C.) | Dissolution After Heating (MC (Low viscosity) 2% (w/v), M4N 1 mg/mL, 90° C.) | Dissolution After Heating (MC (Low viscosity) 2% (w/v), M4N 10 mg/mL, 90° C.)
greater than 7 days: Stability at Room Temperature (M4N 1 mg/mL and 10 mg/mL in 50% HP-β-CD/0.5% HPMC, heated at 90° C., after cool down)
greater than 3 days: stable at room temperature (M4N 1 mg/mL in EC formulation (5% EC in EtOH), without heat) | stable at room temperature (M4N 10 mg/mL in EC formulation, dissolved at 40° C.) | stable at room temperature (M4N 20 mg/mL in EC formulation, dissolved at 60° C.)
did not dissolve: dissolution (M4N 50 mg/mL in 50% HP-β-CD/0.5% HPMC at 90° C.)
>7 days: Stability Time at Room Temperature [1] | Stability Time at Room Temperature [2]
Y at 90 °C: Dissolution After Heating (50% HP-β-CD, 0.5% HPMC, M4N 1 mg/mL, 90° C.) | Dissolution After Heating (50% HP-β-CD, 0.5% HPMC, M4N 10 mg/mL, 90° C.) | Dissolution After Heating (EC 5% (w/v) in EtOH, M4N 50 mg/mL, 90° C.) | Dissolution After Heating (EC 5% (w/v) in EtOH, M4N 100 mg/mL, 90° C.)
Y at 40 °C: Dissolution After Heating (EC 5% (w/v) in EtOH, M4N 10 mg/mL, 40° C.)
>3 days: Stability Time at Room Temperature [3] | Stability Time at Room Temperature [4] | Stability Time at Room Temperature [5]
N: Dissolution After Rotation (2.3% HPMC, M4N 1 mg/mL) | Dissolution After Rotation (2.3% HPMC, M4N 10 mg/mL) | Dissolution After Rotation (2.3% HPMC, M4N 50 mg/mL) | Dissolution After Rotation (2.3% HPMC, M4N 100 mg/mL) | Dissolution After Rotation [1] | Dissolution After Rotation [2] | Dissolution After Rotation (50% HP-β-CD, 0.5% HPMC, M4N 50 mg/mL) | Dissolution After Rotation (CMC (High Viscosity) 1% (w/v), M4N 1 mg/mL) | Dissolution After Rotation (CMC (High Viscosity) 1% (w/v), M4N 10 mg/mL) | Dissolution After Rotation (CMC (Low Viscosity) 4%, M4N 1 mg/mL) | Dissolution After Rotation (CMC (Low Viscosity) 4%, M4N 10 mg/mL) | Dissolution After Rotation [4] | Dissolution After Rotation [5] | Dissolution After Rotation (EC 5% (w/v) in EtOH, M4N 30 mg/mL) | Dissolution After Rotation (EC 5% (w/v) in EtOH, M4N 50 mg/mL) | Dissolution After Rotation (EC 5% (w/v) in EtOH, M4N 100 mg/mL) | Dissolution After Rotation (MC (Low viscosity) 2% (w/v), M4N 1 mg/mL) | Dissolution After Rotation (MC (Low viscosity) 2% (w/v), M4N 10 mg/mL)
Y at 60 °C: Dissolution After Heating (EC 5% (w/v) in EtOH, M4N 20 mg/mL, 60° C.) | Dissolution After Heating (EC 5% (w/v) in EtOH, M4N 30 mg/mL, 60° C.)
did not remain in solution upon cooling: solution upon cooling (M4N 30 mg/mL in EC formulation, soluble at 60° C.) | solution upon cooling (M4N 50 mg/mL or 100 mg/mL in EC formulation, soluble at 90° C.)
